Results as given in US20040071768A1, “Compositions and methods for treating cancer” (Inex Pharmaceuticals Corporation, priority 1999, published 2004).
Where two headings read alike, the source gives them in different places.

What was measured:
[1] = Vinorelbine tolerability, multiple dosing (q7d x 3), nude mice; type: in vivo, NCr nu/nu mice; settings: Nudes
[2] = mice; cited from earlier work
PC3 prostate xenografts = experiment: Single dose anti-tumor activity, PC3 prostate xenograft; type: in vivo; settings: PC-3
Description: Male NCr nude mice were injected intravenously via the lateral tail vein on day 9 post-tumor-implantation with saline (♦), NVB at 45.0 mg/kg (◯) and 34.0 mg/kg (□), or NVB-TCS at 15.0 mg/kg (●) and 11.0 mg/kg (▪) at a drug-to-lipid ratio of 0.3:1 (w/w). The arrow on the x-axis denotes the day of drug administration. Data points represent mean±SEM (n=10).
Vinorelbine is used clinically in the treatment of advanced NSCLC and metastatic breast cancer.
Tumor models investigated included RXF393 (renal), MX-1 (breast), LX-1 (small cell lung cancer), PC-3 (prostate), and HT29 (colon). These models were known to be sensitive to vinorelbine. Tumor fragments were implanted subcutaneously in the flank of NCr nu/nu mice. […] Animal weights and tumor size were determined twice weekly.

[3] = for DRD: ICR
Description: Single and multiple (q7dx3) dose MTD studies were performed in tumor-bearing and non-tumor bearing NCr nu/nu mice, as well as healthy, outbred ICR mice.
A comparative (VRL vs. liposomal VRL) toxicity study was performed in healthy, outbred ICR mice.
Parameters evaluated throughout the study included animal weight loss, physical appearance and behavioral changes, blood analysis (CBC and serum chemistry panel), hematopoietic progenitor cell levels in femur bone marrow, and organ weights and gross pathology. Tissues were collected and stored for histology as required.

[4] = cited from earlier work
[5] = tested on: MDA-MB-435 breast xenografts
Description: Female NCr nude mice were injected intravenously (q7dx3, beginning day 15) via the lateral tail vein. […] Paclitaxel (⋄) was prepared in […]/12.5% ethanol/75% saline and injected iv (q1dx5) at a dose of 15 mg/kg/dose. Drug-to-lipid ratio was 0.3/1 (w/w). Data points represent median tumor volume (n=6).
(§1) The anti-tumor activity of multiple (q7d3) dose schedules of liposomal vinorelbine was evaluated in several human xenograft tumor models. The goal of this series of studies was to identify the benefits of encapsulation by evaluating a series of doses and determining the therapeutic index in several xenograft models. Models were selected based on the following criteria: (1) activity in the single dose studies, (2) a comprehensive literature review of vinca alkaloid efficacy, (3) a desire to include at least 2-3 models that represent the clinical use of vinorelbine, and (4) a desire to include models with a range of sensitivity to vinorelbine so that improvements resulting from the use of the liposome formulation might be identified. Based on these criteria, MX-1 and MDA-MB-435 breast models, the NCl-H460 NSCLC model and the HT-29 and DLD-1 colon models were chosen.
(§2) Therapeutic index (TI) is a parameter that quantifies the “safety factor” of a particular therapy. TI is a ratio of a toxicity parameter and a biological activity parameter. Therefore, a higher ratio represents a greater potential margin of safety. For these studies, TI is defined as follows: […]
(§3) The minimal effective dose (MED) was set according to NCl activity criteria as the dose resulting in an optimal % T/C of 40. This information was derived from Table 7.

[6] = Maximum tolerable dose (MTD) of free and liposomal vinorelbine; type: in vivo, nude and ICR mice
MX-1 breast xenografts = tested on: MX-1 breast xenografts
Description: Female NCr nude mice were injected intravenously (q7dx3) via the lateral tail vein on days indicated by an asterisk (*). […] Drug-to-lipid ratio was 0.3/1 (w/w). Data points represent median tumor volume (n=6).
as §1, §2, §3

[7] = clinical hematological toxicity

## CCC1=C[C@@H]2CN(C1)Cc1c([nH]c3ccccc13)[C@@](C(=O)OC)(c1cc3c(cc1OC)N(C)[C@H]1[C@@](O)(C(=O)OC)[C@H](OC(C)=O)[C@]4(CC)C=CCN5CC[C@]31[C@@H]54)C2 [VRL, 5′-noranhydrovinblastine]
[1]; 5 mg/kg q7d x 3
  DRD: 0/30
[1]; 10 mg/kg q7d x 3
  DRD: 0/37
[1]; 20 mg/kg q7d x 3
  DRD: 2/37
[1]; 25 mg/kg q7d x 3
  DRD: 0/7
[1]; 30 mg/kg q7d x 3
  DRD: 6/18
[2]
  published LD50: 34 mg/kg
PC3 prostate xenografts; single i.v. dose 34 mg/kg
  % T/C (optimal % T/C following final treatment): −3%
  DRD (drug related deaths): 2/10
  MWL (maximum mean weight loss per treatment group): −18.7
  NCI Score: 2
  T-C (tumor growth delay to 1000 mm^3): 34
  TF (tumor free animals at the end of study): 1/8
PC3 prostate xenografts; single i.v. dose 45 mg/kg
  % T/C (optimal % T/C following final treatment): Toxic
  DRD (drug related deaths): 5/10
  MWL (maximum mean weight loss per treatment group): −25.4
  TF (tumor free animals at the end of study): 4/5
[3]; 5 mg/kg q7d x 3
  DRD: 0/15
[3]; 10 mg/kg q7d x 3
  DRD: 0/15
[3]; 20 mg/kg q7d x 3
  DRD: 0/15
[3]; 25 mg/kg q7d x 3
  DRD: 1/15
[3]; mouse, in vivo
  Granulocytopenia: significant
  neutrophil population: almost completely abolished
  spleen weights: Decreased spleen weights
[3]; mouse, in vivo, 5 mg/kg
  Max % Wt Loss: +
[3]; mouse, in vivo, 10 mg/kg
  Max % Wt Loss: −3%
[3]; mouse, in vivo, 20 mg/kg
  Max % Wt Loss: −3%
[3]; mouse, in vivo, 25 mg/kg
  Max % Wt Loss: −5%
[4]; [7]
  anemia: 83%
  leukopenia: 92%
  thrombocytopenia: 5%
[4]; clinical
  Peripheral neuropathy: 25%
  phlebitis: 7%
[5]; 5 mg/kg i.v. q7dx3
  % T/C (optimal % T/C following final treatment): −3%
  DRD (drug related deaths, n = 6): 0
  NCI Score: 2
  T-C (tumor growth delay to 1000 mm^3): 37.5
[5]; 5 mg/kg i.v. q7dx3, n=6
  TF (tumor free animals at the end of study): 0
[5]; 10 mg/kg i.v. q7dx3
  % T/C (optimal % T/C following final treatment): −100%
  DRD (drug related deaths, n = 6): 0
  NCI Score: 3
  T-C (tumor growth delay to 1000 mm^3): >62
[5]; 10 mg/kg i.v. q7dx3, n=6
  TF (tumor free animals at the end of study): 1
[5]; 20 mg/kg i.v. q7dx3
  % T/C (optimal % T/C following final treatment): −100%
  DRD (drug related deaths, n = 6): 2
  NCI Score: 4
  T-C (tumor growth delay to 1000 mm^3): >62
[5]; 20 mg/kg i.v. q7dx3, n=6
  TF (tumor free animals at the end of study): 4
[5]; 30 mg/kg i.v. q7dx3
  % T/C (optimal % T/C following final treatment): −100%
  DRD (drug related deaths, n = 6): 1
  NCI Score: 4
  T-C (tumor growth delay to 1000 mm^3): >62
[5]; 30 mg/kg i.v. q7dx3, n=6
  TF (tumor free animals at the end of study): 3
[6]; NCr nu/nu and ICR, mouse, in vivo, intravenous, q7dx3 dose schedule, estimated, read-out: maximum tolerated dose (MTD)
  MTD: 25 to 30 mg/kg
[6]; NCr nu/nu and ICR, mouse, in vivo, single dose, estimated, read-out: maximum tolerated dose (MTD)
  MTD: 30 mg/kg
[6]; given intravenously on a q7dx3 schedule
  MTD: 27.5 mg/kg/dose
[6]; q7dx3, derived from Table 5
  MTD used in the calculation of therapeutic index (TI): 27.5 mg/kg
MX-1 breast xenografts; 5 mg/kg i.v. q7dx3
  % T/C (optimal % T/C following final treatment): 100%
  DRD (drug related deaths, n = 6): 0
  NCI Score: 0
  T-C (tumor growth delay to 1000 mm^3): 0
MX-1 breast xenografts; 5 mg/kg i.v. q7dx3, n=6
  TF (tumor free animals at the end of study): 0
MX-1 breast xenografts; 10 mg/kg i.v. q7dx3
  % T/C (optimal % T/C following final treatment): 38%
  DRD (drug related deaths, n = 6): 0
  NCI Score: 1
  T-C (tumor growth delay to 1000 mm^3): 7.3
MX-1 breast xenografts; 10 mg/kg i.v. q7dx3, n=6
  TF (tumor free animals at the end of study): 0
MX-1 breast xenografts; 20 mg/kg i.v. q7dx3
  % T/C (optimal % T/C following final treatment): −28%
  DRD (drug related deaths, n = 6): 0
  NCI Score: 3
  T-C (tumor growth delay to 1000 mm^3): 28.5
MX-1 breast xenografts; 20 mg/kg i.v. q7dx3, n=6
  TF (tumor free animals at the end of study): 0
